We go through 19 compounds from patent US7906540B2, “Non-nucleoside reverse transcriptase inhibitors” (Roche Palo Alto LLC, priority 2007, dated 2011).

Where a name gives a salt, the structure may show the parent alone.

One data set has as its system HXB2-strain of HIV. The data set is described as follows: Antiviral assay: protection of HIV-infected MT4 cells from virus-mediated cell death (MTT). It counts as cell-based. The note with it: Human immunodeficiency virus 1, HXB2, MT4, 120 h, read-out: Antiviral Assay IC50. How it is done: Anti-HIV antiviral activity was assessed using an adaptation of the method of Pauwels et al. (J. Virol. Methods 1988 20:309-321). The method is based on the ability of compounds to protect HIV-infected T lymphoblastoid cells (MT4 cells) from cell-death mediated by the infection. The endpoint of the assay was calculated as the concentration of compound at which the cell viability of the culture was preserved by 50% (‘50% inhibitory concentration’, IC50). The cell viability of a culture was determined by the uptake of soluble, yellow 3-[4,5-dimethylthiazol-2-yl]-2,5-diphenyltetrazolium bromide (MTT) and its reduction to a purple insoluble formazan salt. After solubilization, spectrophotometric methods were employed to measure the amount of formazan product. […]
A fresh solution of 5 mg/mL MTT was prepared in 0.01 M phosphate buffered saline, pH 7.2 and 20 microliters added to each culture. […] When the formazan deposit was fully solubilized by further mixing, the absorbance (OD) of the cultures was measured at 540 nm and 690 nm wavelength (690 nm readings were used as blanks for artifacts between wells). The percent protection for each treated culture was then calculated from the equation: […]

In general, IC50 refers to the concentration needed to halve the response being measured. On to `Cn1c(COc2ccc(Br)c(Oc3cc(C#N)cc(C(F)F)c3)c2F)n[nH]c1=O` [Compound I-4, 3-[6-Bromo-2-fluoro-3-(4-methyl-5-oxo-4,5-dihydro-1H-[1,2,4]triazol-3-ylmethoxy)-phenoxy]-5-difluoromethyl-benzonitrile; trifluoro-acetic acid salt], for which the concentration for half-maximal inhibition (IC50) in the data set with HXB2-strain of HIV came out at 0.7 nM.
The term melting point denotes the temperature of the solid-liquid transition. `Cn1c(COc2ccc(Cl)cc2C(=O)c2cc(Cl)cc(C#N)c2)n[nH]c1=O` returned a melting point of 210 to 213.9 °C.
On to `CCc1ccc(OCc2n[nH]c(=O)n2C)c(Oc2cc(C#N)cc(C(F)F)c2)c1F`, for which the melting point is 160 to 161 °C.
On to `Cn1c(CCc2ccc(Br)c(F)c2Oc2cc(Cl)cc(C#N)c2)n[nH]c1=O`, for which the melting point lay within 212.4 to 214.2 °C.
In the case of `Cn1c(COc2ccc(Br)c(F)c2Oc2cc(Cl)cc(C#N)c2)n[nH]c1=O`, the melting point is 192.5 to 193 °C.
With `Cn1c(COc2ccc(Cl)cc2Oc2cc(Cl)cc(C#N)c2)n[nH]c1=O`, the melting point was 176 to 177 °C.
On the same count and under the same terms, then `Cn1c(COc2ccc(Br)c(Oc3cc(Cl)cc(C#N)c3)c2)n[nH]c1=O`, with 95.2 to 100.7 °C; and `Cn1c(COc2ccc(Cl)c(Oc3cc(Cl)cc(C#N)c3)c2F)n[nH]c1=O` (as salt: salt) [Compound I-2, 3-Chloro-5-[6-chloro-2-fluoro-3-(4-methyl-5-oxo-4,5-dihydro-1H-[1,2,4]triazol-3-ylmethoxy)-phenoxy]-benzonitrile; formate salt], with 221 to 225 °C.
In the case of `Cn1c(COc2ccc(Cl)c(Oc3cc(Cl)cc(C#N)c3)c2Cl)n[nH]c1=O`, the melting point lay within 224.4 to 225.6 °C.
The same measure, in the same setting: then `Cn1c(COc2ccc(Cl)c(Oc3cc(C#N)cc(C(F)F)c3)c2F)n[nH]c1=O`, with 184.5 to 185.3 °C; and `CCc1ccc(OCc2n[nH]c(=O)n2C)c(F)c1Oc1cc(Cl)cc(C#N)c1`, with 179 to 180 °C; and `CCc1ccc(OCc2n[nH]c(=O)n2C)c(Oc2cc(C#N)cc(C3CC3)c2)c1F`, with 166 to 168 °C.
Take `Cn1c(COc2ccc(Cl)c(Oc3cc(Cl)cc(C#N)c3)c2F)n[nH]c1=O` [Compound I-2, 3-Chloro-5-[6-chloro-2-fluoro-3-(4-methyl-5-oxo-4,5-dihydro-1H-[1,2,4]triazol-3-ylmethoxy)-phenoxy]-benzonitrile; formate salt]: the IC50 in the data set with HXB2-strain of HIV is 1.5 nM.
For `Cn1c(CCc2ccc(Br)c(Oc3cc(Cl)cc(C#N)c3)c2F)n[nH]c1=O`, the melting point lay within 186 to 187 °C.
In turn, `CCc1cc(C#N)cc(Oc2c(OCc3n[nH]c(=O)n3C)ccc(CC)c2F)c1` returned a melting point of 164 to 166 °C.
As for `Cn1c(COc2ccc(Br)c(F)c2Oc2cc(C#N)cc(C#N)c2)n[nH]c1=O`, the melting point was in the range of 205.5 to 207 °C.
Still for that read-out and setting: as for `Cn1c(COc2ccc(Br)c(F)c2Oc2cc(C#N)cc(C(F)F)c2)n[nH]c1=O`, the figure is 193 to 194 °C.
On to `Cn1c(COc2ccc(Br)c(Oc3cc(C#N)cc(C(F)F)c3)c2F)n[nH]c1=O` (as salt: salt) [Compound I-4, 3-[6-Bromo-2-fluoro-3-(4-methyl-5-oxo-4,5-dihydro-1H-[1,2,4]triazol-3-ylmethoxy)-phenoxy]-5-difluoromethyl-benzonitrile; trifluoro-acetic acid salt], for which the melting point was 199.2 to 201 °C.
Turning to `Cn1c(COc2ccc(Br)c(F)c2Oc2cc(C#N)cc(CC(F)(F)F)c2)n[nH]c1=O`, the melting point is 197.1 to 202.1 °C.
